Measured values: publication PMC9124820, “In vitro evaluation of fenfluramine and norfenfluramine as victims of drug interactions” (Pharmacology Research & Perspectives, 2022)

Columns and labels:
BCRP = target: T1, BCRP (Homo sapiens, UniProt Q9UNQ0); assay: Transporter substrate determination, bi-directional permeability in MDCKII-BCRP cells; format: in vitro ADME; design: host or cells: MDCKII; conditions: for substrate of the transporter: BCRP; for Maximum Ratio (net flux in transporter‐expressing cells to control cells): MDCKII‐BCRP, 0.1, 1, 10 µM, threshold ≥2‐fold suggests substrate
T1 sequence (Q9UNQ0 1-655): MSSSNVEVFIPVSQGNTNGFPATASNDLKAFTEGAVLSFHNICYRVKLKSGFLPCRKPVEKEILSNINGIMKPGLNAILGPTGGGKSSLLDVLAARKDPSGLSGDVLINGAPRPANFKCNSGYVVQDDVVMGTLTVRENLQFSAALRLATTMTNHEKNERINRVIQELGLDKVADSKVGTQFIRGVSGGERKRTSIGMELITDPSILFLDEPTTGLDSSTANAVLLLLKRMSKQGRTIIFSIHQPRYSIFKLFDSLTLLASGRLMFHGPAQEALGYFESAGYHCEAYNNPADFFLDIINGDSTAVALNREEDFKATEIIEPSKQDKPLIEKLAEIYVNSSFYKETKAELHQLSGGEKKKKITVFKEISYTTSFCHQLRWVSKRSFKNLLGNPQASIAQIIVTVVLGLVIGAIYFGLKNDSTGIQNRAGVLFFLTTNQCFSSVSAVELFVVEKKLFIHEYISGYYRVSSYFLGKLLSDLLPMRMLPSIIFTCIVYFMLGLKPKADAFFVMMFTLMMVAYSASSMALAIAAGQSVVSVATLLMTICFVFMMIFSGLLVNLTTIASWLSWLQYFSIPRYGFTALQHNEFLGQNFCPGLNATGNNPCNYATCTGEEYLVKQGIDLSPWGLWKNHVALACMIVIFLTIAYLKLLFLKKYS
Experimental: (§1) LC‐MS/MS analyses to assess metabolic stability and identify the transporter substrate were performed using an API 4000 QTRAP mass spectrometer (SCIEX, Framingham, MA) with electrospray ionization in positive mode. Chromatography was performed using an Atlantis dC18 analytical column (100 × 2.1 mm, 5 µm; Waters Corporation, Milford, MA). Mobile phases were 0.2% v/v formic acid in water and 0.2% v/v formic acid in acetonitrile. For metabolic stability experiments, FFA and metabolites were eluted at a flow rate of 0.6 mL/min, with a linear gradient of 20%−80% acetonitrile from 0.30−2.0 min. For transporter substrate experiments, the gradient was slightly modified to achieve suitable chromatography. The mass transitions monitored were 232.0 > 159.0 for FFA and 348.0 > 330.0 for 1ʹ‐OH‐midazolam‐d4 internal standard.
(§2) FFA and nFFA were evaluated as substrates of the transporters breast cancer resistance protein (BCRP), organic anion transporter (OAT)1, OAT3, organic cation transporter (OCT)2, MATE1, MATE2‐K, and P‐glycoprotein multidrug transporter (P‐gp; also known as MDR1 and ABCB1), according to published methods.[25], [26], [27], [28], [29] Madin‐Darby canine kidney (MDCKII)‐BCRP cells (Netherlands Cancer Institute, Amsterdam, Netherlands) or human embryonic kidney (HEK)293 cells transfected with other transporters (Sekisui Medical Co., Ltd., Tokyo, Japan) were used. Transporter‐transfected and control cells were incubated with FFA or nFFA (0.1, 1, or 10 μM), and the amount of FFA and nFFA accumulated in the cells was measured by LC‐MS/MS as described above. The accumulation of positive control substrates in the presence and absence of an inhibitor served as a positive control for transporter function. […] BCRP substrate determination was made by bi‐directional permeability across MDCKII‐BCRP and control cells cultured on 24‐well transwell plates. Incubation medium containing probe substrate was added. Ten minutes later, transepithelial electrical resistance (TEER) was recorded and cells were preincubated at 37 ± 2°C for 30−60 min before FFA or nFFA or positive control substrate with the solvent control or positive control inhibitor was added to the donor (apical) chamber. […] Samples containing FFA, nFFA, or probe substrate were mixed with internal standard and analyzed by LC‐MS/MS. […] An aliquot was added to 96‐well plate containing scintillation fluid that was analyzed by a MicroBeta^2 scintillation counter (Perkin Elmer, Waltham, MA). Protein concentration was determined by a bicinchoninic acid (BCA) protein assay according to the manufacturer’s protocol (Thermo Fisher Scientific, Waltham, MA). Non‐radiolabeled compounds were resuspended in a 50:50 v/v methanol:water solution containing internal standard and were analyzed by LC‐MS/MS. […]

MATE1 = target: T2, MATE1 (Homo sapiens, UniProt Q96FL8); assay: Transporter substrate determination, uptake in HEK293-MATE1 cells; format: in vitro ADME; conditions: for Maximum Ratio (uptake in transporter‐expressing cells to empty‐vector control cells): HEK293‐MATE1, 0.1, 1, 10 µM, threshold ≥2‐fold; for substrate of the transporter: MATE1
T2 construct: host or cells: HEK293
T2 sequence (Q96FL8 1-570): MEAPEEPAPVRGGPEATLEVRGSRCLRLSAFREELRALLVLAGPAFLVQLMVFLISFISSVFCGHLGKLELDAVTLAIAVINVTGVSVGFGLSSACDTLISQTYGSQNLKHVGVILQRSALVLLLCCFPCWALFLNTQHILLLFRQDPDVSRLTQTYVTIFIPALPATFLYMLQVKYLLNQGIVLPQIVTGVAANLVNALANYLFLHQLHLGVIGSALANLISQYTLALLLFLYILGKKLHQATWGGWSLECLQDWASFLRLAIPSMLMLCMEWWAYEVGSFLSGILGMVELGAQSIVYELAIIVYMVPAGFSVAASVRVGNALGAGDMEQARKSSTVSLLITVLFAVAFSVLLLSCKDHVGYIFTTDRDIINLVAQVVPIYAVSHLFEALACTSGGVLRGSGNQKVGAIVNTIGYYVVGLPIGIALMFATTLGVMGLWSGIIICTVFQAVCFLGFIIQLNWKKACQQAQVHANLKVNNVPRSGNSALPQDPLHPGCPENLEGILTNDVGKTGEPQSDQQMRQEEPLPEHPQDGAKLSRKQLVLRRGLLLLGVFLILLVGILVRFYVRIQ
Experimental: as §1, §2

[1] = clobazam, and valproate, healthy subjects, cited from earlier work

| SMILES | substrate of the transporter (BCRP) | Maximum Ratio (net flux in transporter‐expressing cells to control cells) (BCRP) | Maximum Ratio (uptake in transporter‐expressing cells to empty‐vector control cells) (MATE1) | substrate of the transporter (MATE1) | effect on Cmax, AUC0‐t, and AUC0‐∞ of FFA ([1]; co‐administered with stiripentol) | effect on Cmax and AUC0‐t of nFFA ([1]; FFA co‐administered with stiripentol) |
| --- | --- | --- | --- | --- | --- | --- |
| CCNC(C)Cc1cccc(C(F)(F)F)c1 (racemic) [FFA, (RS)‐ethyl (α‐methyl‐3‐trifluoromethylphenethyl)amine] | not substrates | 1.51 | 1.10 | not substrates | increasing | – |
| CC(N)Cc1cccc(C(F)(F)F)c1.Cl (stereo not shown) [nFFA, 1‐(3‐(trifluoromethyl)phenyl)propan‐2‐amine hydrochloride] | not substrates | 1.42 | 1.00 | not substrates | – | reduced |
